pIC50: −log10 of the molar value.
Columns and labels:
[1] = system: MDA-MB-231; assay: Cytotoxicity against human MDA-MB-231 cells incubated for 24 hrs by MTT assay; assay type: functional, cell-based; details: MDA-MB-231, 24 h
[2] = Selectivity index, ratio of IC50 for cytotoxicity against human A549 cells to IC50 for antimalarial activity against chloroquine resistant Plasmodium falciparum W2 infected in human erythrocytes; assay type: functional
[3] = system: Plasmodium falciparum; assay: Antimalarial activity against chloroquine sensitive Plasmodium falciparum 3D7 infected in human erythrocytes assessed as inhibition of parasite growth incubated for 48 hrs by YOYO-1 dye based flow cytometric analysis; assay type: functional, organism-based; details: 3D7, 48 h
[4] = Cytotoxicity against human HPL1D cells incubated for 24 hrs by MTT assay; assay type: toxicity, cell-based
[5] = Selectivity index, ratio of IC50 for cytotoxicity against human HPL1D cells to IC50 for antimalarial activity against chloroquine resistant Plasmodium falciparum W2 infected in human erythrocytes; assay type: toxicity, cell-based; details: read-out: Ratio IC50
[6] = Selectivity index, ratio of IC50 for cytotoxicity against human MDA-MB-231 cells to IC50 for antimalarial activity against chloroquine resistant Plasmodium falciparum W2 infected in human erythrocytes; assay type: functional
[7] = system: A549; assay: Cytotoxicity against human A549 cells incubated for 24 hrs by MTT assay; assay type: functional, cell-based; details: A549, 24 h
[8] = system: Plasmodium falciparum; assay: Resistance index, ratio of IC50 for antimalarial activity against chloroquine resistant Plasmodium falciparum W2 infected in human erythrocytes to IC50 for antimalarial activity against chloroquine sensitive Plasmodium falciparum 3D7 infected in human erythrocytes; assay type: functional
[9] = system: Plasmodium falciparum; assay: Antimalarial activity against chloroquine resistant Plasmodium falciparum W2 infected in human erythrocytes assessed as inhibition of parasite growth incubated for 48 hrs by YOYO-1 dye based flow cytometric analysis; assay type: functional, organism-based; details: W2, 48 h
[10] = system: Erythrocyte; assay: Cytotoxicity against human erythrocyte at 3 to 100 uM incubated for 3 hrs by microplate reader assay; assay type: toxicity, cell-based; details: dose 3-100 µM
[11] = system: Erythrocyte; assay: Hemolytic activity in human erythrocyte assessed as hemolysis at 25 uM incubated for 3 hrs by microplate reader assay; assay type: toxicity, cell-based

COc1ccc(NC(=O)C(c2ccc(OC(F)(F)F)cc2)N2CCN(c3ncnc4sc5c(c34)CCCC5)CC2)cc1 (centres undefined)
pIC50 [1]: 6.34
Ratio IC50 [2]: 6.08
pIC50 [3]: 6.05
IC50 at 24 h [4]: 28700 nM
selectivity ratio [5]: 472
Ratio IC50 [6]: 7.56
pIC50 [7]: 6.43
Ratio IC50 [8]: 0.068
pIC50 [9]: 7.21
Activity [10]: Non-Toxic
Activity [11]: Toxic

O=C(O)C(c1ccc(OC(F)(F)F)cc1)N1CCN(c2ncnc3sc4c(c23)CCCC4)CC1 (centres undefined)
pIC50 [9]: < 5.00

COc1ccc(NC(=O)C(c2ccc(Cl)c(Cl)c2)N2CCN(c3ncnc4sc5c(c34)CCCC5)CC2)cc1 (centres undefined)
pIC50 [1]: 6.13
Ratio IC50 [2]: 11.91
pIC50 [3]: 6.03
IC50 at 24 h [4]: 31300 nM
selectivity ratio [5]: 460
Ratio IC50 [6]: 10.88
pIC50 [7]: 6.09
Ratio IC50 [8]: 0.073
pIC50 [9]: 7.17
Activity [10]: Non-Toxic
Activity [11]: Toxic

COc1ccc(NC(=O)C(c2ccc(F)c(F)c2)N2CCN(c3ncnc4sc5c(c34)CCCC5)CC2)cc1 (centres undefined)
pIC50 [1]: 6.51
Ratio IC50 [2]: 5.64
pIC50 [3]: 6.14
IC50 at 24 h [4]: 27200 nM
selectivity ratio [5]: 205
Ratio IC50 [6]: 2.33
pIC50 [7]: 6.12
Ratio IC50 [8]: 0.183
pIC50 [9]: 6.88
Activity [10]: Non-Toxic
Activity [11]: Toxic

Cc1ccc(C(C(=O)O)N2CCN(c3ncnc4sc5c(c34)CCCC5)CC2)cc1 (centres undefined)
pIC50 [9]: 5.07

O=C(O)C(c1ccc(Cl)c(Cl)c1)N1CCN(c2ncnc3sc4c(c23)CCCC4)CC1 (centres undefined)
pIC50 [9]: < 5.00

COc1ccc(NC(=O)C(c2ccc(C)cc2)N2CCN(c3ncnc4sc5c(c34)CCCC5)CC2)cc1 (centres undefined)
pIC50 [3]: 6.16
Ratio IC50 [8]: 0.387
pIC50 [9]: 6.57
Activity [10]: Non-Toxic
Activity [11]: Toxic

O=C(O)C(c1ccc(C(F)(F)F)cc1)N1CCN(c2ncnc3sc4c(c23)CCCC4)CC1 (centres undefined)
pIC50 [9]: 5.18

COc1ccc(NC(=O)C(c2ccc(F)cc2)N2CCN(c3ncnc4sc5c(c34)CCCC5)CC2)cc1 (centres undefined)
pIC50 [3]: 5.91
Ratio IC50 [8]: 0.173
pIC50 [9]: 6.77
Activity [10]: Non-Toxic
Activity [11]: Toxic

COc1ccc(NC(=O)C(c2ccc(OC)cc2)N2CCN(c3ncnc4sc5c(c34)CCCC5)CC2)cc1 (centres undefined)
pIC50 [3]: 6.16
Ratio IC50 [8]: 0.268
pIC50 [9]: 6.73
Activity [10]: Non-Toxic
Activity [11]: Toxic

COc1ccc(NC(=O)C(c2ccc(C(F)(F)F)cc2)N2CCN(c3ncnc4sc5c(c34)CCCC5)CC2)cc1 (centres undefined)
pIC50 [1]: 6.96
Ratio IC50 [2]: 1.43
pIC50 [3]: 6.08
IC50 at 24 h [4]: 39900 nM
selectivity ratio [5]: 716
Ratio IC50 [6]: 1.97
pIC50 [7]: 7.10
Ratio IC50 [8]: 0.067
pIC50 [9]: 7.25
Activity [10]: Non-Toxic
Activity [11]: Toxic

COc1ccc(C(C(=O)O)N2CCN(c3ncnc4sc5c(c34)CCCC5)CC2)cc1 (centres undefined)
pIC50 [9]: < 5.00

O=C(O)C(c1ccc(F)c(F)c1)N1CCN(c2ncnc3sc4c(c23)CCCC4)CC1 (centres undefined)
pIC50 [9]: < 5.00

O=C(O)C(c1ccc(F)c(Cl)c1)N1CCN(c2ncnc3sc4c(c23)CCCC4)CC1 (centres undefined)
pIC50 [9]: < 5.00

COc1ccc(NC(=O)C(c2ccc(F)c(Cl)c2)N2CCN(c3ncnc4sc5c(c34)CCCC5)CC2)cc1 (centres undefined)
pIC50 [1]: 6.28
Ratio IC50 [2]: 3.43
pIC50 [3]: 5.97
IC50 at 24 h [4]: 36100 nM
selectivity ratio [5]: 288
Ratio IC50 [6]: 4.15
pIC50 [7]: 6.37
Ratio IC50 [8]: 0.116
pIC50 [9]: 6.90
Activity [10]: Non-Toxic
Activity [11]: Toxic

O=C(O)C(c1ccc(F)cc1)N1CCN(c2ncnc3sc4c(c23)CCCC4)CC1 (centres undefined)
pIC50 [9]: < 5.00

COc1cccc2c1C(=O)c1c(O)c3c(c(O)c1C2=O)C[C@@](O)(C(=O)CO)C[C@@H]3O[C@H]1C[C@H](N)[C@H](O)[C@H](C)O1 [DOXORUBICIN]
pIC50 [1]: 5.24
